Experiments:
Cathepsin S = Cathepsin S (UniProt P25774); assay: Cathepsin enzyme inhibition assay (fluorogenic peptide substrate Z-Val-Val-Arg-AMC), Cathepsin S; format: biochemical, human and mouse; settings: enzyme 1 nM, substrate 20 μM, pH 6.5; read-out: CatS IC50
Experimental: (§1) Cathepsin Enzyme Inhibition Assay
(§2) Enzyme activity is measured by observing the increase in fluorescence intensity caused by cleavage of a peptide substrate containing a fluorophore whose emission is quenched in the intact peptide.
(§3) Assay buffer: 100 mM potassium phosphate pH 6.5, EDTA-Na 5 mM, Triton X-100 0.001%, DDT 5 mM.
(§4) Enzymes (all at 1 nM): human and mouse Cathepsin S, Cat K, Cat B, Cat L Substrate (20 μM): Z-Val-Val-Arg-AMC, except for Cat K which uses Z-Leu-Arg-AMC (both from Bachem).
(§5) AMC=7-Amino-4-Methyl-Coumarin.
Enzyme is added to the substance dilutions in 96-well microtitre plates and the reaction is started with substrate. […] IC50 are calculated by standard methods. The results are expressed in μM in the following table.

Cat L = Cat L (UniProt P07711); assay: Cathepsin enzyme inhibition assay (fluorogenic peptide substrate Z-Val-Val-Arg-AMC), Cathepsin L; format: biochemical, human and mouse; settings: enzyme 1 nM, substrate 20 μM, pH 6.5; read-out: CatL IC50
Experimental: as §1, §2, §3, §4, §5
Excitation 360 nm, Emission 465 nm.
Enzyme is added to the substance dilutions in 96-well microtitre plates and the reaction is started with substrate. Fluorescence emission is measured over 20 minutes, during which time a linear increase is observed in the absence of inhibitor. IC50 are calculated by standard methods. The results are expressed in μM in the following table.

CC(C)(C)OC(=O)N1C[C@H](S(=O)(=O)c2c(Cl)cccc2Cl)C[C@H]1C(=O)NC1(C#N)CC1 [Example 47, (2S,4R)-2-(1-Cyano-cyclopropylcarbamoyl)-4-(2,6-dichloro-benzenesulfonyl)-pyrrolidine-1-carboxylic acid tert-butyl ester]
IC50 (Cathepsin S): 1.4 nM

N#CC1(NC(=O)[C@@H]2C[C@@H](S(=O)(=O)c3ccccc3C(F)(F)F)CN2c2ccccc2)CC1 [Example 119, (2S,4R)-1-Phenyl-4-(2-trifluoromethyl-benzenesulfonyl)-pyrrolidine-2-carboxylic acid (1-cyano-cyclopropyl)-amide]
IC50 (Cat L): ≥ 25000 nM

N#CCNC(=O)[C@@H]1C[C@@H](S(=O)(=O)c2ccccc2C(F)(F)F)CN1c1ccccc1 [Example 151, (2S,4R)-1-Phenyl-4-(2-trifluoromethyl-benzenesulfonyl)-pyrrolidine-2-carboxylic acid cyanomethyl-amide]
IC50 (Cat L): ≥ 25000 nM

N#CC1(NC(=O)[C@@H]2C[C@@H](S(=O)(=O)c3ccccc3C(F)(F)F)CN2c2ccnc(C(F)(F)F)n2)CC1 [Example 185, (2S,4R)-4-(2-Trifluoromethyl-benzenesulfonyl)-1-(2-trifluoromethyl-pyrimidin-4-yl)-pyrrolidine-2-carboxylic acid (1-cyano-cyclopropyl)-amide]
IC50 (Cat L): ≥ 25000 nM

N#CC1(NC(=O)[C@@H]2C[C@@H](S(=O)(=O)c3ccccc3C(F)(F)F)CN2c2ncccc2C(F)(F)F)CC1 [Example 186, (2S,4R)-4-(2-Trifluoromethyl-benzenesulfonyl)-1-(3-trifluoromethyl-pyridin-2-yl)-pyrrolidine-2-carboxylic acid (1-cyano-cyclopropyl)-amide]
IC50 (Cat L): ≥ 25000 nM

N#CC1(NC(=O)[C@@H]2C[C@@H](S(=O)(=O)c3ccccc3Cl)CN2C(=O)C2(c3ccc(Cl)cc3)CC2)CC1 [Example 215, (2S,4R)-4-(2-Chloro-benzenesulfonyl)-1-[1-(4-chloro-phenyl)-cyclopropanecarbonyl]-pyrrolidine-2-carboxylic acid (1-cyano-cyclopropyl)-amide]
IC50 (Cathepsin S): 0.2 nM

Cc1cc(N2C[C@H](S(=O)(=O)c3ccccc3C(F)(F)F)C[C@H]2C(=O)NC2(C#N)CC2)nn1C [Example 255, (2S,4R)-1-(1,5-Dimethyl-1H-pyrazol-3-yl)-4-(2-trifluoromethyl-benzenesulfonyl)-pyrrolidine-2-carboxylic acid (1-cyano-cyclopropyl)-amide]
IC50 (Cathepsin S): 5.65 nM

N#CC1(NC(=O)[C@@H]2C[C@@H](S(=O)(=O)c3ccc(-c4ccc(F)cc4F)cc3C(F)(F)F)CN2C(=O)C2(C(F)(F)F)CC2)CC1 [Example 263, (2S,4R)-4-(2′,4′-Difluoro-3-trifluoromethyl-biphenyl-4-sulfonyl)-1-(1-trifluoromethyl-cyclopropanecarbonyl)-pyrrolidine-2-carboxylic acid (1-cyano-cyclopropyl)-amide]
IC50 (Cathepsin S): 0.33 nM

Cc1cc(N2C[C@H](S(=O)(=O)c3ccccc3C(F)(F)F)C[C@H]2C(=O)NC2(C#N)CC2)n[nH]1 [Example 286, (2S,4R)-1-(5-Methyl-1H-pyrazol-3-yl)-4-(2-trifluoromethyl-benzenesulfonyl)-pyrrolidine-2-carboxylic acid (1-cyano-cyclopropyl)-amide]
IC50 (Cathepsin S): 15 nM

N#CC1(NC(=O)[C@@H]2C[C@@H](S(=O)(=O)c3ccc(N4CCN(CC(F)(F)F)CC4)cc3Cl)CN2C(=O)C2(C(F)(F)F)CC2)CC1 [Example 291, (2S,4R)-4-{2-Chloro-4-[4-(2,2,2-trifluoro-ethyl)-piperazin-1-yl]-benzenesulfonyl}-1-(1-trifluoromethyl-cyclopropanecarbonyl)-pyrrolidine-2-carboxylic acid (1-cyano-cyclopropyl)-amide]
IC50 (Cathepsin S): 14.7 nM

CN1CCN(c2ccc(S(=O)(=O)[C@@H]3CC(C(=O)NC4(C#N)CC4)N(C(=O)C4(C(F)(F)F)CC4)C3)c(Cl)c2)CC1 (stereo partly drawn) [Example 305, (R)-4-[2-Chloro-4-(4-methyl-piperazin-1-yl)-benzenesulfonyl]-1-(1-trifluoromethyl-cyclopropanecarbonyl)-pyrrolidine-2-carboxylic acid (1-cyano-cyclopropyl)-amide]
IC50 (Cathepsin S): 19.7 nM

N#CC1(NC(=O)[C@@H]2C[C@@H](S(=O)(=O)c3ccc(F)cc3Cl)CN2C(=O)C2(c3ccc(Cl)cc3)CC2)CC1 [Example 312, (2S,4R)-4-(2-Chloro-4-fluoro-benzenesulfonyl)-1-[1-(4-chloro-phenyl)-cyclopropanecarbonyl]-pyrrolidine-2-carboxylic acid (1-cyano-cyclopropyl)-amide]
IC50 (Cathepsin S): 0.195 nM

CN1CCN(c2ccc(S(=O)(=O)[C@@H]3C[C@@H](C(=O)NC4(C#N)CC4)N(C(=O)C4(c5ccc(Cl)cc5)CC4)C3)c(Cl)c2)CC1 [Example 324, (2S,4R)-4-[2-Chloro-4-(4-methyl-piperazin-1-yl)-benzenesulfonyl]-1-[1-(4-chloro-phenyl)-cyclopropanecarbonyl]-pyrrolidine-2-carboxylic acid (1-cyano-cyclopropyl)-amide]
IC50 (Cathepsin S): 0.09 nM

N#CC1(NC(=O)[C@@H]2C[C@@H](S(=O)(=O)c3ccc(-n4ccnc4)cc3Cl)CN2C(=O)C2(c3ccc(Cl)cc3)CC2)CC1 [Example 325, (2S,4R)-4-(2-Chloro-4-imidazol-1-yl-benzenesulfonyl)-1-[1-(4-chloro-phenyl)-cyclopropanecarbonyl]-pyrrolidine-2-carboxylic acid (1-cyano-cyclopropyl)-amide]
IC50 (Cathepsin S): 0.08 nM

Cc1nccn1-c1ccc(S(=O)(=O)[C@@H]2C[C@@H](C(=O)NC3(C#N)CC3)N(C(=O)C3(c4ccc(Cl)cc4)CC3)C2)c(Cl)c1 [Example 326, (2S,4R)-4-[2-Chloro-4-(2-methyl-imidazol-1-yl)-benzenesulfonyl]-1-[1-(4-chloro-phenyl)-cyclopropanecarbonyl]-pyrrolidine-2-carboxylic acid (1-cyano-cyclopropyl)-amide]
IC50 (Cathepsin S): 0.18 nM

N#CC1(NC(=O)[C@@H]2C[C@@H](S(=O)(=O)c3ccc(-n4cccn4)cc3Cl)CN2C(=O)C2(c3ccc(Cl)cc3)CC2)CC1 [Example 327, (2S,4R)-1-[1-(4-Chloro-phenyl)-cyclopropanecarbonyl]-4-(2-chloro-4-pyrazol-1-yl-benzenesulfonyl)-pyrrolidine-2-carboxylic acid (1-cyano-cyclopropyl)-amide]
IC50 (Cathepsin S): 0.175 nM

CC(C)(C)N1CCN(c2ccc(S(=O)(=O)[C@@H]3C[C@@H](C(=O)NC4(C#N)CC4)N(C(=O)C4(c5ccc(Cl)cc5)CC4)C3)c(Cl)c2)CC1 [Example 329, (2S,4R)-4-[4-(4-tert-Butyl-piperazin-1-yl)-2-chloro-benzenesulfonyl]-1-[1-(4-chloro-phenyl)-cyclopropanecarbonyl]-pyrrolidine-2-carboxylic acid (1-cyano-cyclopropyl)-amide]
IC50 (Cathepsin S): 0.115 nM

N#CC1(NC(=O)[C@@H]2C[C@@H](S(=O)(=O)c3ccc(N4CCN(C5CC5)CC4)cc3Cl)CN2C(=O)C2(c3ccc(Cl)cc3)CC2)CC1 [Example 330, (2S,4R)-4-[2-Chloro-4-(4-cyclopropyl-piperazin-1-yl)-benzenesulfonyl]-1-[1-(4-chloro-phenyl)-cyclopropanecarbonyl]-pyrrolidine-2-carboxylic acid (1-cyano-cyclopropyl)-amide]
IC50 (Cathepsin S): 0.08 nM

CC(C)c1nccn1-c1ccc(S(=O)(=O)[C@@H]2C[C@@H](C(=O)NC3(C#N)CC3)N(C(=O)C3(c4ccc(Cl)cc4)CC3)C2)c(Cl)c1 [Example 336, (2S,4R)-4-[2-Chloro-4-(2-isopropyl-imidazol-1-yl)-benzenesulfonyl]-1-[1-(4-chloro-phenyl)-cyclopropanecarbonyl]-pyrrolidine-2-carboxylic acid (1-cyano-cyclopropyl)-amide]
IC50 (Cathepsin S): 0.33 nM

Cc1cc(N2C[C@H](S(=O)(=O)c3ccc(N4CC(F)(F)C4)cc3C(F)(F)F)C[C@H]2C(=O)NC2(C#N)CC2)n(C2CCOCC2)n1 [Example 403, (2S,4R)-4-[4-(3,3-Difluoro-azetidin-1-yl)-2-trifluoromethyl-benzenesulfonyl]-1-[5-methyl-2-(tetrahydro-pyran-4-yl)-2H-pyrazol-3-yl]-pyrrolidine-2-carboxylic acid (1-cyano-cyclopropyl)-amide]
IC50 (Cathepsin S): 0.49 nM

Cc1cc(N2C[C@H](S(=O)(=O)c3ccc(N4CCN(C)CC4)cc3C(F)(F)F)C[C@H]2C(=O)NC2(C#N)CC2)n(C2CCOCC2)n1 [Example 404, (2S,4R)-4-[4-(4-Methyl-piperazin-1-yl)-2-trifluoromethyl-benzenesulfonyl]-1-[5-methyl-2-(tetrahydro-pyran-4-yl)-2H-pyrazol-3-yl]-pyrrolidine-2-carboxylic acid (1-cyano-cyclopropyl)-amide]
IC50 (Cathepsin S): 0.405 nM

Cc1ccc(C2(C(=O)N3C[C@H](S(=O)(=O)c4ccccc4Cl)C[C@H]3C(=O)NC3(C#N)CC3)CC2)cc1 [Example 438, (2S,4R)-4-(2-chlorophenylsulfonyl)-N-(1-cyanocyclopropyl)-1-(1-p-tolylcyclopropane-carbonyl)pyrrolidine-2-carboxamide]
IC50 (Cathepsin S): 0.52 nM

N#CC1(NC(=O)[C@@H]2C[C@@H](S(=O)(=O)Cc3ccccc3)CN2C(=O)C2(c3ccc(Cl)cc3)CC2)CC1 [Example 458, (2S,4R)-4-(benzylsulfonyl)-1-(1-(4-chlorophenyl)cyclopropanecarbonyl)-N-(1-cyanocyclopropyl)pyrrolidine-2-carboxamide]
IC50 (Cathepsin S): 61900 nM

From patent publication US8163793B2, “Proline derivatives” (Hoffman-La Roche Inc., priority 2009, dated 2012)
